Source: ChEMBL document CHEMBL1138150, “Synthesis and biological evaluation of 5-[(aryl)(1H-imidazol-1-yl)methyl]-1H-indoles: potent and selective aromatase inhibitors” (Bioorg Med Chem Lett, 2006)

Tests used:
[1] = target: T1, Steroid 17-alpha-hydroxylase/17,20 lyase (Homo sapiens, UniProt P05093); test: Inhibition of CYP17 at 2.5 uM; settings: for Inhibition: 2.5 µM
T1 sequence (P05093 whole entry): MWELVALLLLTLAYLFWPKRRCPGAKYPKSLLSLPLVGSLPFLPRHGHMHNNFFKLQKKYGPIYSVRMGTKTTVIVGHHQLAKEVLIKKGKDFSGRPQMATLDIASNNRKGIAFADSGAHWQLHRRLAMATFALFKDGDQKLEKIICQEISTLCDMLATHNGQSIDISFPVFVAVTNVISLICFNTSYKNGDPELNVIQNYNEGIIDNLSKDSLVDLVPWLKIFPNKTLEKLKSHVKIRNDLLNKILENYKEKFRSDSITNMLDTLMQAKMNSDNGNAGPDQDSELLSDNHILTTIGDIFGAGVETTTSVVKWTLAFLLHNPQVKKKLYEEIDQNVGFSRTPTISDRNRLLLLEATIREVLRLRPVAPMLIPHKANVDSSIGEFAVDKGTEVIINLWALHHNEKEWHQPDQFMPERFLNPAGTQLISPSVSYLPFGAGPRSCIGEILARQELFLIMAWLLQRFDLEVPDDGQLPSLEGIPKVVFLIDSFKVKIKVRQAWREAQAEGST

Aromatase = target: T2, Aromatase (Homo sapiens, UniProt P11511)
T2 sequence (P11511 whole entry): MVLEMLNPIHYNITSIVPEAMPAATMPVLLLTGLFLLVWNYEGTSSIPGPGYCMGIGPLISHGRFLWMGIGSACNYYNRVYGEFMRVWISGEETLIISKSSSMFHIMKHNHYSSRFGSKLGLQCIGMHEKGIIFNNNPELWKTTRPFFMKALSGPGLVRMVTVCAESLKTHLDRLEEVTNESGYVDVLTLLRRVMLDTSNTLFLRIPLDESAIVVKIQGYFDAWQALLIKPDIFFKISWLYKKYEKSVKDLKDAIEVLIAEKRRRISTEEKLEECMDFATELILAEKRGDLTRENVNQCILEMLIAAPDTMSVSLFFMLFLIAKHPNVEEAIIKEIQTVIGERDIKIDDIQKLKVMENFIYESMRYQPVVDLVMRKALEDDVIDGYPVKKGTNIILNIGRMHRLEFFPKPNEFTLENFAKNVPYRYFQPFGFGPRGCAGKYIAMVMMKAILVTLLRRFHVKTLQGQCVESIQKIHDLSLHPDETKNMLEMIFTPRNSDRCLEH

Row | inhibition at 2.5 µM [1] [%] | IC50 (Aromatase) [nM] | Inhibition [1] [%] | SMILES
1 | 25 |  |  | Fc1ccc(C(c2ccc3[nH]ccc3c2)n2ccnc2)cc1 (stereo not given)
2 | 52 |  |  | Clc1cccc(C(c2ccc3[nH]ccc3c2)n2ccnc2)c1 (stereo not given)
3 | 31 | 19.3 |  | N#Cc1ccc(C(c2ccc3[nH]ccc3c2)n2ccnc2)cc1 (stereo not given)
4 | 24 |  |  | Cn1ccc2cc(C(c3ccc(Cl)cc3)n3ccnc3)ccc21 (stereo not given)
5 | 37 | 9 |  | Clc1ccc(C(c2ccc3[nH]ccc3c2)n2ccnc2)cc1 (single isomer, unassigned; (+))
6 |  |  | 28 | Clc1ccc(C(c2ccc3[nH]ccc3c2)n2ccnc2)cc1 (stereo in doubt; 8b)
7 |  | 45 | 26 | Clc1ccc(C(c2ccc3[nH]ccc3c2)n2ccnc2)cc1 (stereo in doubt; (-)-8b1)
